# Results filed as inconclusive are left out. Active and inactive are the calls of the source. No rule for the calls is given here.
# System: Mycobacterium tuberculosis non-replicating, growth inhibition
# Test: growth inhibition of non-replicating M. tuberculosis (AID 488890)
row,SMILES,IC50
1,COc1ccccc1/C=C/C=N/NC(=O)c1ccncc1,1.08 µM
2,CCOc1cc(-c2sc(Nc3cc(C)ccc3OC)n[n+]2-c2ccccc2)ccc1OC,4.29 µM
3,Cc1onc(-c2ccccc2Cl)c1C(=O)O/N=C(\N)c1ccc([N+](=O)[O-])o1,4.55 µM
4,CCCCOC(=O)C1CCCC(C(=O)OCCCC)N1 (configuration not stated),4.91 µM
5,c1ccc(OCc2nn3c(-c4ccccn4)nnc3s2)cc1,23 µM (inactive)
6,O=C1C=C(Nc2ccc(F)cc2)c2ccccc2C1=O,5.36 µM
7,CCC(C)(C)NC(=O)c1ccc(Br)o1,18.6 µM (inactive)
8,Clc1ccccc1OCc1nnc(-c2ccccc2)o1,4.35 µM
9,NC(=O)c1ccc(N=Cc2ccc([N+](=O)[O-])s2)cc1,11.8 µM (inactive)
10,CC(=O)Nc1cccc(-c2nc3ccccc3c(=O)o2)c1,7.84 µM
11,Cc1cccc2nc(-c3cccnc3)c(NCCC(C)C)n12,16.1 µM (inactive)
12,CCCNC(=O)OCC12CC3CC(CC(C3)C1)C2,0.65 µM
13,CCC(=O)Nc1nc2ccccc2n1Cc1ccccc1Cl,4.32 µM
14,CCN(CC)c1ccc(NC2CC(=O)N(CCc3ccc(OC)cc3)C2=O)cc1 (configuration not stated),25.6 µM (inactive)
15,COc1ccc(-c2noc(-c3cc4ccccc4oc3=O)n2)cc1,5.06 µM
16,O=C(N/N=C/c1cccs1)c1cncc(Br)c1,4.85 µM
17,O=C(N/N=C/c1ccccn1)c1cccc([N+](=O)[O-])c1,3.91 µM
18,O=C(COC(=O)c1ccc(Br)o1)NCCCc1ccccc1,6.5 µM
19,COC(=O)CC(=O)N1CCN(c2ccc(Cl)c(Cl)c2)CC1,5.82 µM
20,Cc1ccc(NC(C)C(=O)N/N=C/c2ccc([N+](=O)[O-])s2)cc1 (configuration not stated),5.74 µM
21,NC(=O)C1(N2CCCCC2)CCN(C2CC(=O)N(CCc3ccccc3)C2=O)CC1 (configuration not stated),13 µM (inactive)
22,CN(C)CCCNc1cc(C(C)(C)C)nc2c(-c3ccc(Cl)cc3)cnn12,5.24 µM
23,CC(NCCCOc1cccc2ccccc12)c1ccccc1 (configuration not stated),15.5 µM (inactive)
24,COc1ccc(NC(=O)Nc2ccc(O)c3ccccc23)cc1,3.7 µM

row,SMILES,IC50
1,C[C@H](NC(=O)c1[nH]cnc1C(=O)Nc1ccccc1)C(=O)OC(C)(C)C,18.9 µM (inactive)
2,COC(=O)c1ccc(COC(=O)c2ccccn2)cc1,7.11 µM
3,CCc1ccc(/C=N/NC(=O)c2ccccn2)cc1,24.8 µM (inactive)
4,CC(C)CN1C(=O)CC(Sc2ccccc2C(=O)O)C1=O (configuration not stated),26.7 µM (inactive)
5,COc1cc(OC)cc(C(=O)Oc2c(CN3CCOCC3)cc(Cl)c3cccnc23)c1,7.87 µM
6,O=C(COC(=O)CCc1c[nH]c2ccccc12)Nc1ccc([N+](=O)[O-])cc1,9.82 µM
7,Brc1ccc(CSc2nnc(-c3ccco3)o2)cc1,0.28 µM
8,Fc1ccc(-c2ccc(CNCc3ccccn3)o2)cc1Cl,8.76 µM
9,COc1ccc(C(=O)CCN2CCCCCC2)cc1,2.05 µM
10,O=C(NN=C(Cc1ccccc1)Cc1ccccc1)c1ccncc1,0.35 µM
11,O=C(CCSc1nnc(-c2ccncc2)o1)Nc1cccc(Cl)c1,20.3 µM (inactive)
12,CCCCCn1c(=O)c(C(=O)Nc2cnccn2)c(O)c2ccccc21,2.55 µM
13,C/C(=N\NC(=O)CCc1ccccc1)C1C(=O)c2ccccc2C1=O,0.25 µM
14,O=C(N/N=C/c1ccc([N+](=O)[O-])s1)c1ccncc1,1.77 µM
15,O=C(C/C=N\OCc1ccc([N+](=O)[O-])cc1)Nc1ccc(Br)cc1,10.9 µM (inactive)
16,CC(CCc1ccccc1)NC(=O)COC(=O)c1cccs1 (configuration not stated),13.4 µM (inactive)
17,O=c1c2c([N+](=O)[O-])cc([N+](=O)[O-])cc2nc2ccccn12,9.45 µM
18,COC(=O)COc1cccc(NC(=O)COc2ccccc2)c1,7.75 µM
19,CC(=O)Oc1c(C)cc(Cl)cc1C(=O)Nc1ccc([N+](=O)[O-])cc1Cl,2.71 µM
20,CCOC(=O)COc1ccc(C(=O)Nc2cccc(Cl)c2C)cc1,0.23 µM
21,Cc1ccc(C(=O)N2N=C(CC(C)C)CC2(O)C(F)(F)F)o1 (configuration not stated),6.3 µM
22,CCCOc1ccc(CCC(=O)N/N=C/c2ccc([N+](=O)[O-])o2)cc1,4.22 µM
23,O=C(CNc1cccc2ccccc12)N/N=C/c1ccc([N+](=O)[O-])o1,12.1 µM (inactive)
24,Cc1nnc(C)n1/N=C/c1cc(Br)cc(Br)c1O,11.3 µM (inactive)

row,SMILES,IC50
1,O=C1N(c2ccc3c(c2)OCCO3)C(c2ccccc2)C1(F)F (configuration not stated),2.28 µM
2,COC(=O)c1ccccc1NC(=O)C1CC(c2ccc(F)cc2)=NO1 (configuration not stated),10.2 µM (inactive)
3,O=C(NC12CC3CC(CC(C3)C1)C2)c1ccc([N+](=O)[O-])o1,5.44 µM
4,O=C1N/C(=N\c2ccccn2)SC1Cc1ccc(Cl)cc1 (configuration not stated),3.91 µM
5,COC(=O)CCn1c(C)cc(C(=O)COc2ccccc2C(N)=O)c1C,9.88 µM
6,O=C(COc1ccc2ccccc2c1)Nc1ccncc1,3.17 µM
7,O=C(CC(=O)c1ccccc1O)c1cccc(F)c1,8.89 µM
8,COc1ccc(NC(=O)c2cnc(SC)nc2)cc1,28.9 µM (inactive)
9,CC(C)(C)c1ccc(-c2nc(C#N)c(NCCCn3ccnc3)o2)cc1,38.2 µM (inactive)
10,COc1ccccc1-c1nnc(NC(=O)c2ccc3ncsc3c2)o1,22.5 µM (inactive)
11,Cc1noc2ncnc(Sc3ccc(Br)cc3)c12,6.24 µM
12,CC1CCN(CCc2nc3cc(NC(=O)COc4ccc(Cl)cc4)ccc3n2C)CC1,17.4 µM (inactive)
13,O=C(CCN1CCOCC1)c1ccc(Cl)cc1,7.01 µM
14,COC(CNC(=O)c1ccc2c3c(onc13)-c1ccccc1C2=O)OC,2.4 µM
15,CCOC(=O)CCS(=O)(=O)c1nc(-c2ccccc2)cc(C(F)(F)F)n1,0.99 µM
16,O=C(c1ccc([N+](=O)[O-])s1)N1CCN(c2cccc(Cl)c2)CC1,0.38 µM
17,Cc1ccc(-n2cc(CNCCc3cscn3)c(-c3ccc(F)cc3)n2)cc1,10.9 µM (inactive)
18,O=C1/C(=C/c2cccs2)COc2ccccc21,13.9 µM (inactive)
19,CCc1nnc(N/N=C/c2ccc(-c3ccc([N+](=O)[O-])cc3)o2)n1N,7.59 µM
20,C=C(C)C1Cc2c(C)nn(-c3nc(C)cc(C)n3)c2C1 (configuration not stated),11.6 µM (inactive)
21,Cc1nc(/N=C(\N)NC(=O)NC2CCCCC2)nc2ccccc12,10.3 µM (inactive)
22,C/C(=N\Nc1nc2ccccc2[nH]1)c1cc2ccccc2o1,8.88 µM
23,CC(C)(c1ccccc1)c1ccc(OCC(O)CNC2CCN(Cc3ccccc3)CC2)cc1 (configuration not stated),5.9 µM
24,CCCCSc1nnc(-c2cc(Br)ccc2N)c(=O)[nH]1,12.6 µM (inactive)

row,SMILES,IC50
1,Cc1nc(-c2ccc(C(F)(F)F)cc2)sc1C(=O)NN,23.5 µM (inactive)
2,CCCOc1ccc(N2CC(C(=O)Nc3ccccc3F)CC2=O)cc1 (configuration not stated),15.8 µM (inactive)
3,NC(=O)N/N=C/c1ccccc1OC(=O)c1cc2ccccc2oc1=O,3.77 µM
4,CN=C1S/C(=C\c2ccc(OCC(=O)OC)c(OC)c2)C(=O)N1C,16.5 µM (inactive)
5,O=C(Nc1nnc(-c2ccco2)o1)c1ccc(Cl)s1,11.2 µM (inactive)
6,Cc1cccc(NC(=O)c2ccc([N+](=O)[O-])o2)c1C,6.39 µM
7,O=C1C=CC(=O)N1N(c1ccccc1)c1ccccc1,8.68 µM
8,CCc1cc(C=NC2CCCCC2)c(O)s1,1.78 µM
9,COc1cccc2[nH]c3c(Cl)ncnc3c12,17.4 µM (inactive)
10,O=C(COC(=O)CC1CCCC1)Nc1ccc(Cl)cn1,17.2 µM (inactive)
11,CCC(C)n1c(=S)[nH]c2ccccc2c1=O (configuration not stated),14.8 µM (inactive)
12,Cc1cc(-c2n[nH]c(=S)n2/N=C/C(Br)=C/c2ccccc2)n[nH]1,19.8 µM (inactive)
13,C/C(=C\C(=O)c1ccc(Br)cc1)NNC(=O)c1ccccc1,0.38 µM
14,Cc1onc(-c2ccccc2)c1C(=O)O/N=C(\N)c1ccc([N+](=O)[O-])o1,25.8 µM (inactive)
15,Cc1ccc(-c2nn(-c3ccccc3)cc2/C=N/NC(=O)c2ccncc2)o1,6.11 µM
16,N#Cc1cc(N)ccc1-n1cccc1,6.15 µM
17,O=C(COc1cccc2ccccc12)Nc1nc2ccccc2[nH]1,5.36 µM
18,c1ccc2[nH]c(NC3=NCCC3)nc2c1,19.2 µM (inactive)
19,O=C(CCSc1ccccc1)N1CCCC1,3.33 µM
20,Cc1ccc(S(=O)(=O)Nc2cccc3ncccc23)s1,5.34 µM
21,C=C1Cn2c(nnc2-c2ccc(Cl)cc2)S1,12.8 µM (inactive)
22,Cc1ccc(CNC(=O)c2cnccn2)cc1,1.36 µM
23,CCOC(=O)c1c(C)[nH]c(C)c1C(=O)COC(=O)c1ccc([N+](=O)[O-])s1,1.65 µM
24,COc1ccccc1NC(=O)c1ccc([N+](=O)[O-])o1,1.12 µM

row,SMILES,IC50
1,Cc1ccc(NC(=O)COCC(=O)Nc2ccc(C)cc2)cc1,14.6 µM (inactive)
2,Cc1ccc(C(=O)Nc2nnc(-c3ccncc3)o2)cc1,23.3 µM (inactive)
3,O=C1CCC(=O)N1CNc1ccc(Oc2ccccc2)cc1,2.02 µM
4,CN1CCN(c2cc3c(cc2F)c(=O)c(C(=O)O)cn3CCF)CC1,7.52 µM
5,O=C(COc1ccccc1)NC1CCCCC1,0.61 µM
6,COCCn1c(C)cc(C(=O)COC(=O)c2ccc([N+](=O)[O-])o2)c1C,2.79 µM
7,O=C(COc1ccc2ccccc2c1)NNC(=O)c1cccs1,4.52 µM
8,COCCn1c(C)cc(C(=O)COC(=O)c2ccc(Br)o2)c1C,43.8 µM (inactive)
9,Nc1scc(-c2ccncc2)c1Cl,14 µM (inactive)
10,CCOc1ccc(Nc2ccc([N+](=O)[O-])c3nonc23)cc1,1.72 µM
11,Clc1cccc(-c2ccc(CNCc3ccccn3)o2)c1,6.87 µM
12,CC1(C)CC(=O)c2cc(C(=O)NNc3ccccc3)c(=O)n(-c3ccccc3)c2C1,7.49 µM
13,NC(=O)COC(=O)c1sc2ccccc2c1Cl,8.25 µM
14,Cc1ccnc(NS(=O)(=O)c2ccc(NC(=O)c3ccc([N+](=O)[O-])s3)cc2)n1,8.3 µM
15,O=C(NC1CCCC1)c1nc2c(nnn2Cc2cccc(Cl)c2)c(=O)[nH]1,19.8 µM (inactive)
16,O=[N+]([O-])c1ccc(Nc2ccccc2)c2nonc12,2.87 µM
17,CC1=Nc2ccccc2/C1=C/c1sc(=N)n(-c2nccs2)c1O,1.51 µM
18,O=C(C1CCN(C2CC(=O)N(Cc3ccccc3)C2=O)CC1)N1CCCCCC1 (configuration not stated),7.22 µM
19,CC1=CC2=NC(=O)/C(=C\c3ccc(OC(=O)c4ccco4)cc3)C(=N)N2O1,5.99 µM
20,O=C(Oc1ccc(F)cc1)c1ccc2c(=O)n3c(nc2c1)CCC3,2.49 µM
21,CCCn1c(CNc2ccccc2O)nc2ccccc21,3.3 µM
